EC50 data for 14 compounds are collected here from patent publication US20120220562A1, “Anti-Viral Compounds” (ABBOTT LABAORATORIES, priority 2011, published 2012).

The subject of this assay is HCV 1b-Con1 replicon. Nature of the assay: HCV 1b-Con1 replicon assay in the presence of 5% FBS. Particulars: Hepatitis C virus. It counts as cell-based.
As to `CCOC(=O)N[C@H](C(=O)N1CCC[C@H]1c1nc2cc([C@H]3CC[C@H](c4ccc5[nH]c([C@@H]6CCCN6C(=O)[C@@H](NC(=O)OCC)C(C)C)nc5c4)N3c3cc(F)c(N4CCC(c5ccccc5)CC4)c(F)c3)ccc2[nH]1)C(C)C` [Example 3.34, ethyl {(2S)-1-[(2S)-2-{5-[(2R,5R)-1-[3,5-difluoro-4-(4-phenylpiperidin-1-yl)phenyl]-5-{2-[(2S)-1-{(2S)-2-[(ethoxycarbonyl)amino]-3-methylbutanoyl}pyrrolidin-2-yl]-1H-benzimidazol-5-yl}pyrrolidin-2-yl]-1H-benzimidazol-2-yl}pyrrolidin-1-yl]-3-methyl-1-oxobutan-2-yl}carbamate], the EC50 (in general, the concentration at which the effect is half-maximal) was under 0.1 nM. As for `CC(C)(C)OC(=O)NCC(=O)N1CCC[C@H]1c1nc2cc([C@@H]3CC[C@@H](c4ccc5[nH]c([C@@H]6CCCN6C(=O)CNC(=O)OC(C)(C)C)nc5c4)N3c3ccc(N4CCCCC4)c(F)c3)ccc2[nH]1` [Example 3.14, tert-butyl {2-[(2S)-2-(5-{(2S,5S)-5-{2-[(2S)-1-{[(tert-butoxycarbonyl)amino]acetyl}pyrrolidin-2-yl]-1H-benzimidazol-5-yl}-[3-fluoro-4-(piperidin-1-yl)phenyl]pyrrolidin-2-yl}-1H-benzimidazol-2-yl)pyrrolidin-1-yl]-2-oxoethyl}carbamate], the 50% effective concentration (EC50) was over 10 nM. For `COC(=O)N[C@H](C(=O)N1CCC[C@H]1c1nc2cc([C@H]3CC[C@H](c4ccc5[nH]c([C@@H]6CCCN6C(=O)[C@@H](NC(=O)OC)C(C)C)nc5c4)N3c3cc(F)c(N4CCN(c5ccccc5)CC4)c(F)c3)ccc2[nH]1)C(C)C` [Example 4.58, methyl {(2S)-1-[(2S)-2-{5-[(2R,5R)-1-[3,5-difluoro-4-(4-phenylpiperazin-1-yl)phenyl]-5-{2-[(2S)-1-{(2S)-2-[(methoxycarbonyl)amino]-3-methylbutanoyl}pyrrolidin-2-yl]-1H-benzimidazol-5-yl}pyrrolidin-2-yl]-1H-benzimidazol-2-yl}pyrrolidin-1-yl]-3-methyl-1-oxobutan-2-yl}carbamate], the half-maximal effective concentration (EC50) is under 0.1 nM. As for `COC(=O)N[C@H](C(=O)N1CCC[C@H]1c1nc2cc([C@H]3CC[C@H](c4cc5nc([C@@H]6CCCN6C(=O)[C@@H](NC(=O)OC)[C@@H](C)OC)[nH]c5cc4F)N3c3cc(F)c(N4CCN(c5c(F)cccc5F)CC4)c(F)c3)c(F)cc2[nH]1)[C@@H](C)OC` [Example 3.48, methyl {(2S,3R)-1-[(2S)-2-{5-[(2R,5R)-1-{4-[4-(2,6-difluorophenyl)piperazin-1-yl]-3,5-difluorophenyl}-5-(6-fluoro-2-{(2S)-1-[N-(methoxycarbonyl)-O-methyl-L-threonyl]pyrrolidin-2-yl}-1H-benzimidazol-5-yl)pyrrolidin-2-yl]-6-fluoro-1H-benzimidazol-2-yl}pyrrolidin-1-yl]-3-methoxy-1-oxobutan-2-yl}carbamate], the concentration giving a half-maximal response (EC50) is under 0.1 nM. For the compound `COC(=O)N[C@H](C(=O)N1CCC[C@H]1c1nc2cc([C@H]3CC[C@H](c4ccc5[nH]c([C@@H]6CCCN6C(=O)[C@@H](NC(=O)OC)C6CCCCC6)nc5c4)N3c3cc(F)c(N4CCC(c5ccccc5)CC4)c(F)c3)ccc2[nH]1)C1CCCCC1` [Example 3.22, dimethyl ({(2R,5R)-1-[3,5-difluoro-4-(4-phenylpiperidin-1-yl)phenyl]pyrrolidine-2,5-diyl}bis{1H-benzimidazole-5,2-diyl(2S)pyrrolidine-2,1-diyl [(1S)-1-cyclohexyl-2-oxoethane-2,1-diyl]})biscarbamate], the EC50 is under 0.1 nM. Next, `COC(=O)N[C@H](C(=O)N1CCC[C@H]1c1nc2c(Cl)c([C@H]3CC[C@H](c4ccc5[nH]c([C@@H]6CCCN6C(=O)[C@@H](NC(=O)OC)C(C)C)nc5c4Cl)N3c3ccc(C(C)(C)C)cc3)ccc2[nH]1)C(C)C` [Example 6.5, methyl {(2S)-1-[(2S)-2-{5-[(2R,5R)-1-(4-tert-butylphenyl)-5-{4-chloro-2-[(2S)-1-{(2S)-2-[(methoxycarbonyl)amino]-3-methylbutanoyl}pyrrolidin-2-yl]-1H-benzimidazol-5-yl}pyrrolidin-2-yl]-4-chloro-1H-benzimidazol-2-yl}pyrrolidin-1-yl]-3-methyl-1-oxobutan-2-yl}carbamate]: under 0.1 nM; `COC(=O)N[C@H](C(=O)N1CCC[C@H]1c1nc2cc([C@H]3CC[C@H](c4ccc5[nH]c([C@@H]6CCCN6C(=O)[C@@H](NC(=O)OC)C(C)C)nc5c4)N3c3cc(F)c(N4CCC(C(C)=O)(c5ccccc5)CC4)c(F)c3)ccc2[nH]1)C(C)C` [Example 4.17, methyl {(2S)-1-[(2S)-2-{5-[(2R,5R)-1-[4-(4-acetyl-4-phenylpiperidin-1-yl)-3,5-difluorophenyl]-5-{2-[(2S)-1-{(2S)-2-[(methoxycarbonyl)amino]-3-methylbutanoyl}pyrrolidin-2-yl]-1H-benzimidazol-5-yl}pyrrolidin-2-yl]-1H-benzimidazol-2-yl}pyrrolidin-1-yl]-3-methyl-1-oxobutan-2-yl}carbamate]: under 0.1 nM; `COC(=O)N[C@H](C(=O)N1CCC[C@H]1c1nc2cc([C@H]3CC[C@H](c4ccc5[nH]c([C@@H]6CCCN6C(=O)[C@@H](NC(=O)OC)C(C)C)nc5c4)N3c3cc(F)c(N4CCC(c5ccc(F)cc5)CC4)c(F)c3)ccc2[nH]1)C(C)C` [Example 3.42, methyl {(2S)-1-[(2S)-2-{5-[(2R,5R)-1-{3,5-difluoro-4-[4-(4-fluorophenyl)piperidin-1-yl]phenyl}-5-{2-[(2S)-1-{(2S)-2-[(methoxycarbonyl)amino]-3-methylbutanoyl}pyrrolidin-2-yl]-1H-benzimidazol-5-yl}pyrrolidin-2-yl]-1H-benzimidazol-2-yl}pyrrolidin-1-yl]-3-methyl-1-oxobutan-2-yl}carbamate]: under 0.1 nM. In the case of `COC(=O)N[C@H](C(=O)N1CCC[C@H]1c1nc2cc([C@H]3CC[C@H](c4ccc5[nH]c([C@@H]6CCCN6C(=O)[C@@H](NC(=O)OC)C(C)C)nc5c4)N3c3ccc(OC(F)(F)F)c(Cl)c3)ccc2[nH]1)C(C)C` [Example 3.2, methyl {(2S)-1-[(2S)-2-{5-[(2R,5R)-1-[3-chloro-4-(trifluoromethoxy)phenyl]-5-{2-[(2S)-1-{(2S)-2-[(methoxycarbonyl)amino]-3-methylbutanoyl}pyrrolidin-2-yl]-1H-benzimidazol-5-yl}pyrrolidin-2-yl]-1H-benzimidazol-2-yl}pyrrolidin-1-yl]-3-methyl-1-oxobutan-2-yl}carbamate], the EC50 was under 0.1 nM. With `COC(=O)N[C@H](C(=O)N1[C@H](c2nc3cc([C@H]4CC[C@H](c5cc6nc([C@@H]7C[C@@H]8CCC[C@@H]8N7C(=O)[C@@H](NC(=O)OC)C7CCOCC7)[nH]c6cc5F)N4c4cc(F)c(N5CCCCC5)c(F)c4)c(F)cc3[nH]2)C[C@@H]2CCC[C@@H]21)C1CCOCC1` [Example 3.41, dimethyl ({(2R,5R)-1-[3,5-difluoro-4-(piperidin-1-yl)phenyl]pyrrolidine-2,5-diyl}bis{(6-fluoro-1H-benzimidazole-5,2-diyl)(2S,3aS,6aS)hexahydrocyclopenta[b]pyrrole-2,1(2H)-diyl[(1S)-2-oxo-1-(tetrahydro-2H-pyran-4-yl)ethane-2,1-diyl]})biscarbamate], the half-maximal effective concentration (EC50) is under 0.1 nM. Next, `COC(=O)N[C@H](C(=O)N1CCC[C@H]1c1nc2cc([C@H]3CC[C@H](c4ccc5[nH]c([C@@H]6CCCN6C(=O)[C@@H](NC(=O)OC)C6CCOCC6)nc5c4)N3c3cc(F)c(N4CCC(C)(C)CC4)c(F)c3)ccc2[nH]1)C1CCOCC1` [Example 4.23, dimethyl ({(2R,5R)-1-[4-(4,4-dimethylpiperidin-1-yl)-3,5-difluorophenyl]pyrrolidine-2,5-diyl}bis{1H-benzimidazole-5,2-diyl(2S)pyrrolidine-2,1-diyl[(1S)-2-oxo-1-(tetrahydro-2H-pyran-4-yl)ethane-2,1-diyl]})biscarbamate]: under 0.1 nM; `COC(=O)N[C@H](C(=O)N1CCC[C@H]1c1nc2cc([C@H]3CC[C@H](c4ccc5[nH]c([C@@H]6CCCN6C(=O)[C@@H](NC(=O)OC)C(C)C)nc5c4)N3c3cc(F)c(N4CCCCC4c4ccccc4)c(F)c3)ccc2[nH]1)C(C)C` (stereo partly drawn) [Example 4.50, methyl {(2S)-1-[(2S)-2-{5-[(2R,5R)-1-[3,5-difluoro-4-(2-phenylpiperidin-1-yl)phenyl]-5-{2-[(2S)-1-{(2S)-2-[(methoxycarbonyl)amino]-3-methylbutanoyl}pyrrolidin-2-yl]-1H-benzimidazol-5-yl}pyrrolidin-2-yl]-1H-benzimidazol-2-yl}pyrrolidin-1-yl]-3-methyl-1-oxobutan-2-yl}carbamate]: under 0.1 nM. Regarding `COC(=O)N[C@H](C(=O)N1CCC[C@H]1c1nc2cc(F)c([C@H]3CC[C@H](c4cc5[nH]c([C@@H]6CCCN6C(=O)[C@@H](NC(=O)OC)C6CCOCC6)nc5cc4F)N3c3cc(F)c(N4CCN(c5ccc(C(F)(F)F)cc5)CC4)c(F)c3)cc2[nH]1)C1CCOCC1` [Example 4.46, dimethyl ([(2R,5R)-1-(3,5-difluoro-4-{4-[4-(trifluoromethyl)phenyl]piperazin-1-yl}phenyl)pyrrolidine-2,5-diyl]bis{(5-fluoro-1H-benzimidazole-6,2-diyl)(2S)pyrrolidine-2,1-diyl[(1S)-2-oxo-1-(tetrahydro-2H-pyran-4-yl)ethane-2,1-diyl]})biscarbamate], the concentration for a half-maximal effect (EC50) was under 0.1 nM.

With `COC(=O)N[C@H](C(=O)N1C(c2nc3cc([C@H]4CC[C@H](c5ccc6[nH]c([C@@H]7C[C@@H]8CCC[C@@H]8N7C(=O)[C@@H](NC(=O)OC)C(C)C)nc6c5)N4c4cc(F)c(N5CCCCC5)c(F)c4)ccc3[nH]2)C[C@@H]2CCC[C@@H]21)C(C)C` (stereo partly drawn) [Example 4.18, methyl {(2S)-1-[(2S,3aS,6aS)-2-{5-[(2R,5R)-1-[3,5-difluoro-4-(piperidin-1-yl)phenyl]-5-{2-[(3aS,6aS)-1-{(2S)-2-[(methoxycarbonyl)amino]-3-methylbutanoyl}octahydrocyclopenta[b]pyrrol-2-yl]-1H-benzimidazol-5-yl}pyrrolidin-2-yl]-1H-benzimidazol-2-yl}hexahydrocyclopenta[b]pyrrol-1(2H)-yl]-3-methyl-1-oxobutan-2-yl}carbamate], the EC50 is under 0.1 nM.
